Experimental findings from US8461141B2, “Preventive or therapeutic drug for Alzheimer-type dementia” (Mochida Pharmaceutical Co., Ltd., priority 2005, dated 2013) are described below.

Experiment [1] concerns patients diagnosed with Alzheimer-type dementia. Nature of the experiment: Hasegawa Dementia Scale and symptom observation in patients with Alzheimer-type dementia. Format: in vivo, human. As to conditions: for Hasegawa Dementia Scale After 2 months: individual Alzheimer-type dementia patients, EPA-E alone 300 or 600 mg/day for 2 months, scale of 30. How it is done: (§1) Each patient was evaluated for the improvement of the dementia by Hasegawa Dementia Scale at the start of the test, 2 months after the start of the test (2 months from the start of administering ethyl icosapentate), and 6 months after the start of the test (4 months after the start of the combined administration of the ethyl icosapentate and the levothyroxine sodium).

The subject of experiment [2] is patients diagnosed with cerebrovascular dementia. Put plainly: Hasegawa Dementia Scale and symptom observation in patients with cerebrovascular dementia (Reference Example). Format: in vivo, human. As to conditions: for Hasegawa Dementia Scale After 2 months: individual cerebrovascular dementia patients, EPA-E alone 300 or 600 mg/day for 2 months. How it is done:
as §1

Each structure is given as a SMILES string. Several values for one entry are separate records, joined by “and”; a condition that tells them apart may be missing. Identical values can stand only once.

For the compound `CC/C=C\C/C=C\C/C=C\C/C=C\C/C=C\CCCC(=O)OCC` [EPA-E, ethyl icosapentate], the “Score of the Hasegawa Dementia Scale (range) 2 months after the start of the test” value in experiment [1] (14 Alzheimer-type dementia patients, EPA-E alone 300-600 mg/day) is listed as “(7-17)”; in experiment [2] (10 cerebrovascular dementia patients, EPA-E alone 300-600 mg/day) it was “(9-15)”. For the same compound, the “Score of the Hasegawa Dementia Scale (average ± standard deviation) 2 months after the start of the test” value in experiment [1] (14 Alzheimer-type dementia patients, EPA-E alone 300-600 mg/day, at the start 10.0 ± 3.5) is on record as 11.4 ± 3.0; in experiment [2] (10 cerebrovascular dementia patients, EPA-E alone 300-600 mg/day, at the start 10.4 ± 1.7) it was 11.2 ± 1.9. In experiment [1] (Alzheimer-type dementia patients, sole administration of ethyl icosapentate 300 to 600 mg/day for 2 months), the “Change in the scores of the Hasegawa Dementia Scale, in words” value was “no substantial change”. Besides, the “Hasegawa Dementia Scale After 2 months” value in experiment [1] (EPA-E 300 mg/day) was 14 and 12 and 11 and 10 and 7 and 9; in experiment [1] (EPA-E 600 mg/day), 7 and 8 and 11 (2×) and 17 and 13 and 15 and 14; in experiment [2] (EPA-E 300 mg/day), 13 and 10 (2×) and 12; in experiment [2] (EPA-E 600 mg/day) it was 15 and 11 (2×) and 12 and 9 (2×).
